Results: paper PMC12090182, “Repurposing of the RIPK1-Selective Benzo[1,4]oxazepin-4-one Scaffold for the Development of a Type III LIMK1/2 Inhibitor” (ACS Chemical Biology, 2025)

Tested on: MRC-9 cells
Experiment: Multiplex high-content viability assessment
Format: cell-based
Conditions: for Cell count normalized to cells treated with DMSO control / Cell count per well / Population Fragmented Nuclei (%) / Population Healthy Nuclei (%) / Population Pyknosed Nuclei (%) / Population apoptotic cell (%) / Population cell that influence microtubule strucutre (%) / Population with increased mitochondrial mass (%) / Population with membrane disruption (%): 1 µM, human fibroblast
Procedure: To assess the influence on cell health, a high-content screening in living cells called the multiplex high-content assay, as described previously by Tjaden et al., was performed.[38] In brief, HEK293T (ATCC CRL-1573) and U2OS (ATCCHTB-96) were cultured in DMEM plus L-glutamine (high glucose) supplemented by 10% FBS (Gibco) and penicillin/streptomycin (Gibco). MRC-9 fibroblasts ([…]) were cultured in EMEM plus L-glutamine supplemented by 10% FBS (Gibco) and penicillin/streptomycin (Gibco). Cells were seeded at a density of 1250 cells per well in a 384-well plate in a culture medium (cell culture microplate, PS, f-bottom, μClear, 781091, Greiner), with a volume of 50 μL per well. All outer wells were filled with 100 μL of PBS buffer (Gibco). […] The cell shape and fluorescence were measured before treatment and 12, 24, and 48 h after compound treatment using the CQ1 high-content confocal microscope (Yokogawa, Musashino, Japan). […] The compounds were tested at 1 and 10 μM, respectively. Acquired images of the cells were processed using Yokogawa CellPathfinder software (v3.04.02.02). […] Results were normalized to cells exposed to 0.1% DMSO. All compounds were tested in biological duplicates, and SEM (standard error of mean) was calculated of biological duplicates.

## CN1C(=O)[C@@H](N2CCc3c(nn(Cc4ccccc4)c3C(N)=O)C2=O)COc2cc(Cl)ccc21 [Compound 10, (S)-2-benzyl-6-(8-chloro-5-methyl-4-oxo-2,3,4,5-tetrahydrobenzo[b][1,4]oxazepin-3-yl)-7-oxo-4,5,6,7-tetrahydro-2H-pyrazolo[3,4-c]pyridine-3-carboxamide]
0 h, replicate 1
  Cell count normalized to cells treated with DMSO control: 0.9542
  Cell count per well: 143
  Population Fragmented Nuclei (%): 19.86%
  Population Healthy Nuclei (%): 56.74%
  Population Pyknosed Nuclei (%): 23.40%
  Population apoptotic cell (%): 42.42%
  Population cell that influence microtubule strucutre (%): 27.50%
  Population with increased mitochondrial mass (%): 11.25%
  Population with membrane disruption (%): 1.25%
0 h, replicate 2
  Cell count normalized to cells treated with DMSO control: 1.071
  Cell count per well: 191
  Population Fragmented Nuclei (%): 17.68%
  Population Healthy Nuclei (%): 56.35%
  Population Pyknosed Nuclei (%): 25.97%
  Population apoptotic cell (%): 19.15%
  Population cell that influence microtubule strucutre (%): 32.35%
  Population with increased mitochondrial mass (%): 4.90%
  Population with membrane disruption (%): 4.90%
12 h, replicate 1
  Cell count normalized to cells treated with DMSO control: 0.9165
  Cell count per well: 138
  Population Fragmented Nuclei (%): 13.43%
  Population Healthy Nuclei (%): 56.72%
  Population Pyknosed Nuclei (%): 29.85%
  Population apoptotic cell (%): 55.00%
  Population cell that influence microtubule strucutre (%): 31.58%
  Population with increased mitochondrial mass (%): 3.95%
  Population with membrane disruption (%): 0.00%
12 h, replicate 2
  Cell count normalized to cells treated with DMSO control: 1.033
  Cell count per well: 172
  Population Fragmented Nuclei (%): 18.52%
  Population Healthy Nuclei (%): 51.23%
  Population Pyknosed Nuclei (%): 30.25%
  Population apoptotic cell (%): 36.73%
  Population cell that influence microtubule strucutre (%): 48.19%
  Population with increased mitochondrial mass (%): 3.61%
  Population with membrane disruption (%): 9.64%
24 h, replicate 1
  Cell count normalized to cells treated with DMSO control: 0.9086
  Cell count per well: 137
  Population Fragmented Nuclei (%): 12.03%
  Population Healthy Nuclei (%): 64.66%
  Population Pyknosed Nuclei (%): 23.31%
  Population apoptotic cell (%): 64.52%
  Population cell that influence microtubule strucutre (%): 32.56%
  Population with increased mitochondrial mass (%): 8.14%
  Population with membrane disruption (%): 2.33%
24 h, replicate 2
  Cell count normalized to cells treated with DMSO control: 1.049
  Cell count per well: 173
  Population Fragmented Nuclei (%): 26.25%
  Population Healthy Nuclei (%): 51.25%
  Population Pyknosed Nuclei (%): 22.50%
  Population apoptotic cell (%): 47.22%
  Population cell that influence microtubule strucutre (%): 46.34%
  Population with increased mitochondrial mass (%): 3.66%
  Population with membrane disruption (%): 8.54%
48 h, replicate 1
  Cell count normalized to cells treated with DMSO control: 0.9623
  Cell count per well: 146
  Population Fragmented Nuclei (%): 16.91%
  Population Healthy Nuclei (%): 63.97%
  Population Pyknosed Nuclei (%): 19.12%
  Population apoptotic cell (%): 76.92%
  Population cell that influence microtubule strucutre (%): 25.29%
  Population with increased mitochondrial mass (%): 4.60%
  Population with membrane disruption (%): 1.15%
48 h, replicate 2
  Cell count normalized to cells treated with DMSO control: 1.056
  Cell count per well: 172
  Population Fragmented Nuclei (%): 23.95%
  Population Healthy Nuclei (%): 59.28%
  Population Pyknosed Nuclei (%): 16.77%
  Population apoptotic cell (%): 75.00%
  Population cell that influence microtubule strucutre (%): 54.55%
  Population with increased mitochondrial mass (%): 5.05%
  Population with membrane disruption (%): 7.07%
1 μM, MRC-9
  cytotoxicity: no cytotoxicity
